Measured values reported in patent US20240400577A1, “MODULATORS OF PROTEIN KINASES” (VIBLIOME THERAPEUTICS, LLC, priority 2021, published 2024).

Tests used:
Test in all cases: Kinase panel enzymatic inhibition assay (Nanosyn)
Format in all cases: biochemical
SYK = molecular target: T1, SYK (Homo sapiens, UniProt P43405); settings: ATP at Km; 30-minute pre-incubation; read-out: kinase inhibition in terms of IC50, SYK
T1 construct: purchased Nanosyn
Summary of the method: (§1)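 Inhibition is expressed as percent at 5 μM or as IC50, with ATP set at the Km of each kinase and a 30-minute compound pre-incubation. Detection used an accepted enzymatic format such as Caliper mobility shift.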

PLK1 = molecular target: T2, PLK1 (Homo sapiens, UniProt P53350); settings: ATP at Km; 30-minute pre-incubation; read-out: kinase inhibition in terms of IC50, PLK1
T2 construct: Nanosyn (contract laboratory that ran the panel)
T2 sequence (P53350 whole entry): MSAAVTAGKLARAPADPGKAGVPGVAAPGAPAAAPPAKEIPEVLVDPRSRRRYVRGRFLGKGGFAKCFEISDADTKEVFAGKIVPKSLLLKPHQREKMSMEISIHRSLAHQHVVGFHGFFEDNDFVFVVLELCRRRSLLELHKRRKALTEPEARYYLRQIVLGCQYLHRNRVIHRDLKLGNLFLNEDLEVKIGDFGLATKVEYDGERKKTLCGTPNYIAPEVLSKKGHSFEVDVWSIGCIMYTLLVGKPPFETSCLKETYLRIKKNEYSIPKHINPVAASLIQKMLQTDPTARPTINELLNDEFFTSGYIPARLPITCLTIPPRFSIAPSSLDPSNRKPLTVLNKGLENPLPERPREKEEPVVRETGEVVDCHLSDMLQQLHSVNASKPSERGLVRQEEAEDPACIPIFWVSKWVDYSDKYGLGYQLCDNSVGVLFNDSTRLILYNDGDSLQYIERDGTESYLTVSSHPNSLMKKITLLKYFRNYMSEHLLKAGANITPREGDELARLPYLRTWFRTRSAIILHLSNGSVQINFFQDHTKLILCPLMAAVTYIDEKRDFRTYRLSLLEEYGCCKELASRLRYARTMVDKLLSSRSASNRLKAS
Summary of the method: as §1

MER = molecular target: T3, MER (Homo sapiens, UniProt Q12866); settings: ATP at Km; 30-minute pre-incubation; read-out: kinase inhibition in terms of IC50, MER
T3 construct: Nanosyn (contract laboratory that ran the panel)
T3 sequence (Q12866 21-999): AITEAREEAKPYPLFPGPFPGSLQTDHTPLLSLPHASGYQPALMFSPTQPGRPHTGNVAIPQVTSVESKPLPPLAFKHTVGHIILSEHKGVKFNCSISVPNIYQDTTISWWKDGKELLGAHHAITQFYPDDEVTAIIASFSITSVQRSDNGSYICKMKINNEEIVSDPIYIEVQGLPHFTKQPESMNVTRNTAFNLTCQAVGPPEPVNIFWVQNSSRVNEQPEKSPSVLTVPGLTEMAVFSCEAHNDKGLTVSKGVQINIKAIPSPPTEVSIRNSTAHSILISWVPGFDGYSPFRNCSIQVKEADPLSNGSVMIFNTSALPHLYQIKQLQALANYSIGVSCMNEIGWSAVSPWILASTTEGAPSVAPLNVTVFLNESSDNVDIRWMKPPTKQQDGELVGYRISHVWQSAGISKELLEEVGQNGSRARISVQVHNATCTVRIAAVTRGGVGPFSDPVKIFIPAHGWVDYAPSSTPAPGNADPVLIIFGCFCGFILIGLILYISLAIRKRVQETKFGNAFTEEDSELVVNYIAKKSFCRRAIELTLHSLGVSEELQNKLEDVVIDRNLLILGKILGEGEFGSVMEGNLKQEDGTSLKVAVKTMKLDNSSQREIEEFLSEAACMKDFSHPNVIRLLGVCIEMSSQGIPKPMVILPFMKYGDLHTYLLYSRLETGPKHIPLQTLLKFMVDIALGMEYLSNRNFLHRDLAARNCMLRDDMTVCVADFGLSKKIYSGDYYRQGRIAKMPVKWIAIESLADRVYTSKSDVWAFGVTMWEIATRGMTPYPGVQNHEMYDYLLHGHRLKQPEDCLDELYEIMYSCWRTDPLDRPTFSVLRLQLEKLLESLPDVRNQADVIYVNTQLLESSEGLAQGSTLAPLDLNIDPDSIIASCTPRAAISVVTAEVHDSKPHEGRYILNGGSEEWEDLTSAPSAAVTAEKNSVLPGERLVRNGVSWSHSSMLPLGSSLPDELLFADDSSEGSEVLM
Summary of the method: as §1

TAK1-TAB1 = molecular target: T4, TAK1-TAB1 (Homo sapiens, UniProt O43318); settings: ATP at Km; 30-minute pre-incubation; read-out: kinase inhibition in terms of IC50, TAK1-TAB1
T4 construct: purchased Nanosyn
T4 sequence (O43318 with tags, fused parts or gaps limits assumed): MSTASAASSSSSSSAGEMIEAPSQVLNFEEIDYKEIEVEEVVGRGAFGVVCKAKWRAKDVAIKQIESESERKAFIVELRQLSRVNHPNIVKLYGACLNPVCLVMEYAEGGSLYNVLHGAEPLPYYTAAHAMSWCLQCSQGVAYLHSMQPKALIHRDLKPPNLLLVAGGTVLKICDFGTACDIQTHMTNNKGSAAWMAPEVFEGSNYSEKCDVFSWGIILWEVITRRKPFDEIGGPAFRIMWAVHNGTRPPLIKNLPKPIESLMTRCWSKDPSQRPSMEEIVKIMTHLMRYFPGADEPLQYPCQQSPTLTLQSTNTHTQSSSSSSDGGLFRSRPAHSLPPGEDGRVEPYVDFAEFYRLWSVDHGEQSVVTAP
Summary of the method: as §1

IC50 (SYK)	IC50 (PLK1)	IC50 (MER)	IC50 (TAK1-TAB1)	SMILES
≥ 10 µM	≥ 10 µM	< 0.5 µM	≥ 10 µM	COc1cc2nccc(Oc3ccc(NC(=O)c4cc(S(C)(=O)=O)n(-c5ccc(F)cc5)n4)c(F)c3)c2cc1OC [Ex71, N-(4-((6,7-dimethoxyquinolin-4-yl)oxy)-2-fluorophenyl)-1-(4-fluorophenyl)-5-(methylsulfonyl)-1H-pyrazole-3-carboxamide]
1 to 10 µM	≥ 10 µM	0.5 to 1 µM	≥ 10 µM	COc1cc2nccc(Oc3ccc(NC(=O)c4cc(S(C)(=O)=O)n(-c5ccc(F)cc5)n4)cc3)c2cc1OC [Ex72, N-(4-((6,7-dimethoxyquinolin-4-yl)oxy)phenyl)-1-(4-fluorophenyl)-5-(methylsulfonyl)-1H-pyrazole-3-carboxamide]
≥ 10 µM	≥ 10 µM	< 0.5 µM	≥ 10 µM	COc1cc2nccc(Oc3ccc(NC(=O)c4cc(S(C)(=O)=O)n(-c5ccc(F)cc5)n4)cc3F)c2cc1OC [Ex73, N-(4-((6,7-dimethoxyquinolin-4-yl)oxy)-3-fluorophenyl)-1-(4-fluorophenyl)-5-(methylsulfonyl)-1H-pyrazole-3-carboxamide]
